The text below walks through data of patent publication US11492375B2, “Cyclic peptide immunomodulators” (Bristol-Myers Squibb Company, priority 2017, dated 2022).

SMILES strings stand for the structures.

PD-1-Ig binding to PD-L1-TVMV-His (PD-L1-His), sequence (Q9NZQ7 other isoform, or with tags, fused parts or gaps): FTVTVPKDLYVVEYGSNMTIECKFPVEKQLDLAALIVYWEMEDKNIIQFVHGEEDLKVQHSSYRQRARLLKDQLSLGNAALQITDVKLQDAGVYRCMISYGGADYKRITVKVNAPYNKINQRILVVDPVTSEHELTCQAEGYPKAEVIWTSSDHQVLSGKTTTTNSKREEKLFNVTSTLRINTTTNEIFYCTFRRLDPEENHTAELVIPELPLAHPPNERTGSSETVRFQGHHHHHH

One data set has as its target PD-1-Ig binding to PD-L1-TVMV-His (PD-L1-His) (Homo sapiens (Human), UniProt Q9NZQ7). Briefly: PD-1/PD-L1 Homogenous Time-Resolved Fluorescence (HTRF) binding assay. The note with it: PD-1-Ig/PD-L1-His binding; numeric value; read-out: HTRF IC50 (μM) or Range. The source says:
The ability of the macrocyclic peptides of the present disclosure to bind to PD-L1 was investigated using a PD-1/PD-L1 Homogenous Time-Resolved Fluorescence (HTRF) binding assay.
Homogenous Time-Resolved Fluorescence (HTRF) Assays of Binding of Soluble PD-1 to Soluble PD-L1. Soluble PD-1 and soluble PD-L1 refers to proteins with carboxyl-end truncations that remove the transmembrane-spanning regions and are fused to heterologous sequences, specifically the Fc portion of the human immunoglobuling G sequence (Ig) or the hexahistidine epitope tag (His). All binding studies were performed in an HTRF assay buffer consisting of dPBS supplemented with 0.1% (w/v) bovine serum albumin and 0.05% (v/v) Tween-20. For the PD-1-Ig/PD-L1-His binding assay, inhibitors were pre-incubated with PD-L1-His (10 nM final) for 15m in 4 μl of assay buffer, followed by addition of PD-1-Ig (20 nM final) in 1 μl of assay buffer and further incubation for 15 m. PD-L1 fusion proteins from either human, cynomologous macaques, mouse, or other species were used. HTRF detection was achieved using europium crypate-labeled anti-Ig monoclonal antibody (1 nM final) and allophycocyanin (APC) labeled anti-His monoclonal antibody (20 nM final). Antibodies were diluted in HTRF detection buffer and 5 μl was dispensed on top of binding reaction. The reaction was allowed to equilibrate for 30 minutes and signal (665 nm/620 nm ratio) was obtained using an EnVision fluorometer. Additional binding assays were established between PD-1-Ig/PD-L2-His (20 and 5 nM, respectively), CD8O-His/PD-L1-Ig (100 and 10 nM, respectively) and CD80-His/CTLA4-Ig (10 and 5 nM, respectively). Binding/competition studies between biotinylated Compound No. 71 and human PD-L1-His were performed as follows. Macrocyclic peptide inhibitors were pre-incubated with PD-L1-His (10 nM final) for 60 minutes in 4 μl of assay buffer followed by addition of biotinylated Compound No. 71 (0.5 nM final) in 1 μl of assay buffer. Binding was allowed to equilibrate for 30 minutes followed by addition of europium crypated labeled Streptavidin (2.5 pM final) and APC-labeled anti-His (20 nM final) in 5 μl of HTRF buffer. The reaction was allowed to equilibrate for 30 m and signal (665 nm/620 nm ratio) was obtained using an EnVision fluorometer.
Recombinant Proteins. Carboxyl-truncated human PD-1 (amino acids 25-167) with a C-terminal human Ig epitope tag [hPD-1 (25-167)-35-IG] and human PD-L1 (amino acids 18-239) with a C-terminal His epitope tag [hPD-L1(19-239)-tobacco vein mottling virus protease cleavage site (TVMV)-His] were expressed in HEK293T cells and purified sequentially by recombinant Protein A affinity chromatography and size exclusion chromatography. Human PD-L2-His (Sino Biologicals), CD80-His (Sino Biologicals), CTLA4-Ig (RnD Systems) were all obtained through commercial sources.
A general note: Time-resolved FRET reads energy transfer from a long-lived donor to a nearby acceptor.
The IC50 is the point on the concentration scale where inhibition reaches its midpoint. Regarding `C[C@@H]1NC(=O)[C@@H]2CCCC/C=C\CCCC[C@@H](C(=O)N2C)N(C)C(=O)[C@H](Cc2c[nH]c3ccccc23)NC(=O)[C@H](CO)NC(=O)[C@H](Cc2c[nH]c3ccccc23)NC(=O)[C@@H]2C[C@@H](O)CN2C(=O)[C@H](CCC(N)=O)NC(=O)[C@H](Cc2cnc[nH]2)NC(=O)[C@@H]2CCCN2C(=O)[C@H](CC(=O)O)NC(=O)[C@@H]2CNCCN2C(=O)[C@H](Cc2ccc(O)cc2)NC(=O)CSC[C@@H](C(=O)NCC(N)=O)NC1=O` [Example 1115], the half-maximal inhibitory concentration (IC50) came to 0.011 µM.
`C[C@@H]1NC(=O)[C@@H]2CCCC/C=C\CCCC[C@@H](C(=O)N2C)N(C)C(=O)[C@H](Cc2c[nH]c3ccccc23)NC(=O)[C@H](CO)NC(=O)[C@H](Cc2c[nH]c3ccccc23)NC(=O)[C@@H]2C[C@@H](O)CN2C(=O)[C@H](CCC(N)=O)NC(=O)[C@H](Cc2cnc[nH]2)NC(=O)[C@@H]2CCCN2C(=O)[C@H](CC(=O)O)NC(=O)[C@@H]2CCCCN2C(=O)[C@H](Cc2ccc(O)cc2)NC(=O)CSC[C@@H](C(=O)NCC(N)=O)NC1=O` [Example 1120]: the IC50 stood at 0.004 µM.

Staying with this data set, now noted: PD-1-Ig/PD-L1-His binding; value given as range class; read-out: HTRF IC50 (μM) or Range.
Regarding `C[C@@H]1NC(=O)[C@@H]2CCCC/C=C\CCCC[C@@H](C(=O)N2C)N(C)C(=O)[C@H](Cc2c[nH]c3ccccc23)NC(=O)[C@H](CO)NC(=O)[C@H](Cc2c[nH]c3ccccc23)NC(=O)[C@@H]2C[C@@H](O)CN2C(=O)[C@H](CCC(N)=O)NC(=O)[C@H](Cc2cnc[nH]2)NC(=O)[C@@H]2CCCN2C(=O)[C@H](CC(=O)O)NC(=O)[C@H](C)N(C)C(=O)[C@H](Cc2ccc(O)cc2)NC(=O)CSC[C@@H](C(=O)NCC(N)=O)NC1=O` [Example 1113], the 50% inhibitory concentration (IC50) was 0.002 to 0.0099 µM.
Regarding `C[C@H]1C(=O)N[C@@H](CC(=O)O)C(=O)N2CCC[C@H]2C(=O)N[C@@H](CN)C(=O)N[C@@H](CCC(=O)O)C(=O)N2C[C@H](O)C[C@H]2C(=O)N[C@@H](Cc2c[nH]c3ccccc23)C(=O)N[C@@H](CO)C(=O)N[C@@H](Cc2c[nH]c3ccccc23)C(=O)N(C)[C@H]2CCC/C=C\CCCC[C@@H](C(=O)N[C@@H](CCC(=O)O)C(=O)N[C@H](C(=O)NCC(N)=O)CSCC(=O)N[C@@H](Cc3ccc(O)cc3)C(=O)N1C)N(C)C2=O` [Example 1116], the IC50 was 0.01 to 0.099 µM.
With `C[C@H]1C(=O)N[C@@H](CC(=O)O)C(=O)N2CCC[C@H]2C(=O)N[C@@H](CN)C(=O)N[C@@H](CCC(=O)O)C(=O)N2C[C@H](O)C[C@H]2C(=O)N[C@@H](Cc2c[nH]c3ccccc23)C(=O)N[C@@H](CO)C(=O)N[C@@H](Cc2cn(CC(=O)O)c3ccccc23)C(=O)N(C)[C@H]2CCCC/C=C\CCCC[C@@H](C(=O)N[C@@H](CCC(=O)O)C(=O)N[C@H](C(=O)NCC(N)=O)CSCC(=O)N[C@@H](Cc3ccc(O)cc3)C(=O)N1C)N(C)C2=O` [Example 1117], the IC50 is 0.002 to 0.0099 µM.
Regarding `C[C@H]1C(=O)N[C@@H](CC(=O)O)C(=O)N2CCC[C@H]2C(=O)N[C@@H](CN)C(=O)N[C@@H](CCC(=O)O)C(=O)N2C[C@H](O)C[C@H]2C(=O)N[C@@H](Cc2c[nH]c3ccccc23)C(=O)N[C@@H](CO)C(=O)N[C@@H](Cc2csc3ccccc23)C(=O)N(C)[C@H]2CCCC/C=C\CCCC[C@@H](C(=O)N[C@@H](CN)C(=O)N[C@H](C(=O)NCC(N)=O)CSCC(=O)N[C@@H](Cc3ccc(O)cc3)C(=O)N1C)N(C)C2=O` [Example 1118], the IC50 lay within 0.002 to 0.0099 µM.
For the compound `CN1C(=O)[C@H](Cc2csc3ccccc23)NC(=O)[C@H](CO)NC(=O)[C@H](Cc2c[nH]c3ccccc23)NC(=O)[C@@H]2C[C@@H](O)CN2C(=O)[C@H](CCC(N)=O)NC(=O)[C@H](CN)NC(=O)[C@@H]2CCCN2C(=O)[C@H](CC(=O)O)NC(=O)[C@@H]2CCCCN2C(=O)[C@H](Cc2ccc(O)cc2)NC(=O)CSC[C@@H](C(=O)NCC(N)=O)NC(=O)[C@H](CN)NC(=O)[C@@H]2CCCC/C=C\CCCC[C@H]1C(=O)N2C` [Example 1119], the IC50 was 0.002 to 0.0099 µM.
Take `CN1C(=O)[C@H](Cc2cn(CC(=O)O)c3ccccc23)NC(=O)[C@H](CCN)NC(=O)[C@H](Cc2c[nH]c3ccccc23)NC(=O)[C@@H]2C[C@@H](O)CN2C(=O)[C@H](CCC(=O)O)NC(=O)[C@H](CN)NC(=O)[C@@H]2CCCN2C(=O)[C@H](CC(=O)O)NC(=O)[C@H]2CCCCN2C(=O)[C@H](Cc2ccc(O)cc2)NC(=O)CSC[C@@H](C(=O)NCC(N)=O)NC(=O)[C@H](CCC(=O)O)NC(=O)[C@@H]2Cc3ccc(cc3)OCC=CCCC[C@H]1C(=O)N2C` [Example 1121]: the IC50 lay within 0.01 to 0.099 µM.
With `C[C@H]1C(=O)N[C@@H](CC(=O)O)C(=O)N2CCC[C@H]2C(=O)N[C@@H](CN)C(=O)N[C@@H](CCC(=O)O)C(=O)N2C[C@H](O)C[C@H]2C(=O)N[C@@H](Cc2c[nH]c3ccccc23)C(=O)N[C@@H](CCN)C(=O)N[C@@H](Cc2cn(CC(=O)O)c3ccccc23)C(=O)N(C)C2CCCCC/C=C\CCCC[C@@H](C(=O)N[C@@H](CCC(=O)O)C(=O)N[C@H](C(=O)NCC(N)=O)CSCC(=O)N[C@@H](Cc3ccc(O)cc3)C(=O)N1C)N(C)C2=O` [Example 1122], the IC50 was in the range of 0.002 to 0.0099 µM.

Test system in a further data set: not given
Test: not given
As to conditions: oral formulation ENTOCORT EC, extensive first-pass metabolism; cited from earlier work.
Take `CCCC1O[C@@H]2C[C@H]3[C@@H]4CCC5=CC(=O)C=C[C@]5(C)[C@H]4[C@@H](O)C[C@]3(C)[C@]2(C(=O)CO)O1` (stereo partly shown) [budesonide]: the bioavailability result is reported as “about 10%”.
